The values below come from patent US20170000133A1, “BENZOXABOROLE FUNGICIDES” (SYNGENTA PARTICIPATIONS AG, priority 2013, published 2017).

One data set concerns Plasmopara viticola. Kind of data set: whole plant or invertebrate. The class given is in vivo. Conditions: foliar, read-out: disease control.
The test system of data set [1] is Puccinia recondita f. sp. tritici. Kind of data set: Puccinia recondita f. sp. tritici / wheat / leaf disc curative (brown rust). The class given is in vivo. Conditions: foliar, 192 h, wheat leaf segments, applied one day after inoculation, assessed 8 dpi, read-out: disease control. How it is done: 4. Puccinia recondita f. sp. tritici/Wheat/Leaf Disc Curative (Brown Rust) Wheat leaf segments are placed on agar in multiwell plates (24-well format). The leaf disks are then inoculated with a spore suspension of the fungus. One day after inoculation the test solution is applied. After appropriate incubation the activity of a compound is assessed 8 dpi (days after inoculation) as curative fungicidal activity. Dose range: 200-22 ppm.

The subject of another data set is Pythium ultimum. Description: Pythium ultimum / liquid culture (seedling damping off). As to conditions: Globisporangium ultimum; 200 ppm; potato dextrose broth, 24° C., 2-3 days after application; read-out: disease control (inhibition of growth determined photometrically). The format is cell-based.
Data set [2] concerns Mycosphaerella arachidis (Cercospora arachidicola). Description: Mycosphaerella arachidis (Cercospora arachidicola) / liquid culture (early leaf spot). The class given is cell-based. As to conditions: PDB potato dextrose broth, 24° C., 4-5 days after application, read-out: disease control (inhibition of growth determined photometrically). A digest of the protocol: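 Conidia from cryogenic storage mixed into potato dextrose broth and added to compound at 200 ppm in DMSO. Incubation at 24° C.; growth inhibition read photometrically 4-5 days after application.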

Data set [3] has as its system Mycosphaerella graminicola (Septoria tritici). Description: Mycosphaerella graminicola (Septoria tritici) / liquid culture (Septoria blotch). The class given is cell-based. Conditions: Zymoseptoria tritici, PDB potato dextrose broth, 24° C., 4-5 days after application, read-out: disease control (inhibition of growth determined photometrically). A digest of the protocol:
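Conidia from cryostorage were suspended in potato dextrose broth and added to test compound in DMSO at 200 ppm in microtiter wells. Plates were incubated at 24° C and growth inhibition measured photometrically 4-5 days after application.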

A further data set has as its system Gaeumannomyces graminis. Kind of data set: Gaeumannomyces graminis / liquid culture (take-all of cereals). The class given is cell-based. Conditions: PDB potato dextrose broth, 24° C., 4-5 days after application, read-out: disease control (inhibition of growth determined photometrically). In short, it runs like this:
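Cryo-stored mycelial fragments in potato dextrose broth exposed to compound in DMSO at 200 ppm. Incubated at 24 °C; growth inhibition read photometrically 4–5 days after application.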

For data set [4], the system named is Monographella nivalis (Microdochium nivale). Description: Monographella nivalis (Microdochium nivale) / liquid culture (foot rot cereals). As to conditions: PDB potato dextrose broth, 24° C., 4-5 days after application, read-out: disease control (inhibition of growth determined photometrically). The format is cell-based.
The subject of data set [5] is Thanatephorus cucumeris (Rhizoctonia solani). Description: Thanatephorus cucumeris (Rhizoctonia solani) / liquid culture (foot rot, damping-off). The format is cell-based. As to conditions: PDB potato dextrose broth, 24° C., 3-4 days after application, read-out: disease control (inhibition of growth determined photometrically). A digest of the protocol:
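Mycelial fragments from fresh liquid culture were suspended in potato dextrose broth and added to compound in DMSO at 200 ppm. After 3-4 days at 24 °C, growth inhibition was measured photometrically.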

The next data set deals with Sclerotinia sclerotiorum. Kind of data set: Sclerotinia sclerotiorum / liquid culture (cottony rot). Conditions: PDB potato dextrose broth, 24° C., 3-4 days after application, read-out: disease control (inhibition of growth determined visually). The format is cell-based. How it is done:
18. Sclerotinia sclerotiorum/Liquid Culture (Cottony Rot): Mycelia fragments of a newly grown liquid culture of the fungus were directly mixed into nutrient broth (PDB potato dextrose broth). After placing a (DMSO) solution of the test compounds into a microtiter plate (96-well format) the nutrient broth containing the fungal material was added. The test plates were incubated at 24° C. and the inhibition of growth was determined visually 3-4 days after application.

The test system of data set [6] is Puccinia recondita f. sp. tritici. Kind of data set: Puccinia recondita f. sp. tritici / wheat / leaf disc preventative (brown rust). The format is in vivo. Conditions: foliar, wheat leaf segments cv Kanzler, inoculated 1 day after application, assessed 7-9 days after application, read-out: disease control. The source says:
3. Puccinia recondita f. sp. tritici/Wheat/Leaf Disc Preventative (Brown Rust): Wheat leaf segments cultivated variety (cv) Kanzler were placed on agar in 24-well plates and sprayed with formulated test compound diluted in water at an application rate of 200 ppm. The leaf disks were inoculated with a spore suspension of the fungus 1 day after application.

For data set [7], the system named is Glomerella lagenarium (Colletotrichum lagenarium). Kind of data set: Glomerella lagenarium (Colletotrichum lagenarium) / liquid culture (anthracnose). As to conditions: Colletotrichum orbiculare, PDB potato dextrose broth, 24° C., 3-4 days after application, read-out: disease control (inhibition of growth measured photometrically). The class given is cell-based. In short, it runs like this: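 Conidia of G. lagenarium from cryogenic storage were suspended in potato dextrose broth and added to test compound in DMSO at 200 ppm. Plates were incubated at 24° C, and growth inhibition was read photometrically 3-4 days after application.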

In data set [8] the test system is Phaeosphaeria nodorum (Septoria nodorum). Kind of data set: Phaeosphaeria nodorum (Septoria nodorum) / wheat / leaf disc preventative (glume blotch). The format is in vivo. Conditions: Parastagonospora nodorum, foliar, wheat leaf segments cv Kanzler, inoculated 2 days after application, assessed 5-7 days after application, read-out: disease control. As to the method: 5. Phaeosphaeria nodorum (Septoria nodorum)/Wheat/Leaf Disc Preventative (Glume Blotch): Wheat leaf segments (cv) Kanzler were placed on agar in a 24-well plate and sprayed with formulated test compound diluted in water at an application rate of 200 ppm. The leaf disks were inoculated with a spore suspension of the fungus 2 days after application. The inoculated test leaf disks were incubated at 20° C. and 75% relative humidity under a light regime of 12/12 h (light/dark) in a climate cabinet and the activity of a compound was assessed as percent disease control compared to untreated when an appropriate level of disease damage appears in untreated check leaf disks (5-7 days after application).

For another data set, the system named is Fusarium culmorum. Description: microbe, parasite or virus in culture. The class given is cell-based. As to conditions: read-out: disease control (inhibition of growth determined visually).
The subject of data set [9] is Botryotinia fuckeliana (Botrytis cinerea). Description: Botryotinia fuckeliana (Botrytis cinerea) / liquid culture (gray mould). The format is cell-based. As to conditions: Vogels broth, 24° C., 3-4 days after application, read-out: disease control (inhibition of growth determined photometrically). As to the method:
10. Botryotinia fuckeliana (Botrytis cinerea)/Liquid Culture (Gray Mould): Conidia of the fungus from cryogenic storage were directly mixed into nutrient broth (Vogels broth). After placing a DMSO solution of test compound into a 96-well microtiter plate at an application rate of 200 ppm, the nutrient broth containing the fungal spores was added. The test plates were incubated at 24° C. and the inhibition of growth was determined photometrically 3-4 days after application.

For orientation: inhibition means how much of the control response was suppressed. `C#CCCOC(=O)c1cc2c(cc1F)COB2O` [Compound 418]: the pest or weed control at 200 ppm (in the data set with Plasmopara viticola; in data set [1]) was at least 80% each time. The inhibition at 200 ppm (in the data set with Pythium ultimum; in [2]; in [3]; in the data set on Gaeumannomyces graminis; in data set [4]; in data set [5]) was at least 80% each time. The inhibition at 200 ppm in the data set with Sclerotinia sclerotiorum is at least 80%.

For `COC(=O)COC(=O)c1ccc2c(c1)B(O)OC2` [Compound 356], the pest or weed control at 200 ppm (in the data set with Plasmopara viticola; in [6]; in data set [1]) was at least 80% each time. The inhibition at 200 ppm (in the data set with Pythium ultimum; in data set [7]; in [2]; with Gaeumannomyces graminis; in data set [4]; in data set [5]) was at least 80% throughout.

With `C=C(C)COC(=O)c1ccc2c(c1)B(O)OC2` [Compound 339], the pest or weed control at 200 ppm (in the data set with Plasmopara viticola; in data set [1]) was at least 80% in each case. The inhibition at 200 ppm (with Pythium ultimum; in [7]; in [2]; in data set [3]; in the data set with Gaeumannomyces graminis; in data set [4]) was at least 80% throughout. Besides, in data set [5], the inhibition at 200 ppm is at least 80%.

Regarding `C=CCC(OC(=O)c1ccc2c(c1)B(O)OC2)C(=O)OC` (stereo not shown) [Compound 348], the pest or weed control at 200 ppm (in the data set with Plasmopara viticola; in data set [1]) was at least 80% in each case. The inhibition at 200 ppm (in the data set on Pythium ultimum; in data set [7]; in [2]; in [5]) was at least 80% each time.

On to `O=C(OCC#Cc1ccccc1)c1cc2c(cc1Cl)COB2O` [Compound 232], for which the pest or weed control at 200 ppm (in the data set on Plasmopara viticola; in [8]) was at least 80% in each case. In addition, the inhibition at 200 ppm (in the data set on Pythium ultimum; in [7]; in [2]; in data set [3]; with Gaeumannomyces graminis; in [4]) was at least 80% throughout. Besides, the inhibition at 200 ppm (in the data set with Fusarium culmorum; in data set [5]) was at least 80% throughout.

With `CC(C)c1ccc(NC(=O)c2cc3c(cc2Cl)COB3O)cc1` [Compound 110], in [8], the pest or weed control at 200 ppm is at least 80%. Further, the inhibition at 200 ppm in [3] and in data set [4] was at least 80% throughout.

As a reminder, the melting point is the temperature, or range, at which the solid turns liquid. The molecule `COC(=O)COC(=O)c1cc2c(cc1F)COB2O` [Compound 419] returned a melting point of 112 to 114 °C. Besides, in the data set on Plasmopara viticola, the pest or weed control at 200 ppm was at least 80%. In data set [6], the pest or weed control at 200 ppm was at least 80%. Moreover, the pest or weed control at 200 ppm in [1] was at least 80%. Also, the inhibition at 200 ppm with Pythium ultimum was at least 80%. For the same molecule, the inhibition at 200 ppm in data set [9] was at least 80%. Also, the inhibition at 200 ppm in data set [7] is at least 80%. Also, the inhibition at 200 ppm in data set [2] is at least 80%. For the same molecule, the inhibition at 200 ppm in data set [3] is at least 80%. Moreover, in the data set on Gaeumannomyces graminis, the inhibition at 200 ppm is at least 80%. The inhibition at 200 ppm in data set [4] is at least 80%. Moreover, the inhibition at 200 ppm with Fusarium culmorum was at least 80%. Besides, the inhibition at 200 ppm in [5] was at least 80%. Further, in the data set with Sclerotinia sclerotiorum, the inhibition at 200 ppm is at least 80%.

In turn, `COC(=O)C#CCOC(=O)c1cc2c(cc1F)COB2O` [Compound 424] displayed a melting point of 112 to 114 °C. In the data set with Plasmopara viticola, the pest or weed control at 200 ppm was at least 80%. Also, the inhibition at 200 ppm in the data set on Pythium ultimum is at least 80%. Moreover, the inhibition at 200 ppm in [9] was at least 80%. For the same molecule, the inhibition at 200 ppm in [7] is at least 80%. Moreover, the inhibition at 200 ppm in data set [2] was at least 80%. Further, the inhibition at 200 ppm in data set [3] is at least 80%. The inhibition at 200 ppm in the data set on Gaeumannomyces graminis is at least 80%. For the same molecule, the inhibition at 200 ppm in data set [4] was at least 80%. Also, in the data set with Fusarium culmorum, the inhibition at 200 ppm was at least 80%. Moreover, in data set [5], the inhibition at 200 ppm is at least 80%. Moreover, the inhibition at 200 ppm in the data set with Sclerotinia sclerotiorum is at least 80%.

As for `O=C(OCC(F)F)c1ccc2c(c1)B(O)OC2` [Compound 365], the pest or weed control at 200 ppm (with Plasmopara viticola; in [1]) was at least 80% throughout. In addition, the inhibition at 200 ppm (in the data set on Pythium ultimum; in data set [2]; with Gaeumannomyces graminis) was at least 80% in each case.

With `N#CCOC(=O)c1cc2c(cc1F)COB2O` [Compound 401], the pest or weed control at 200 ppm (with Plasmopara viticola; in data set [1]) was at least 80% each time. The inhibition at 200 ppm with Pythium ultimum was at least 80%.

For the molecule `C=C(C)COC(=O)c1cc2c(cc1F)COB2O` [Compound 402], in [1], the pest or weed control at 200 ppm was at least 80%. Further, the inhibition at 200 ppm (with Pythium ultimum; in [2]; in data set [3]; with Gaeumannomyces graminis; in data set [4]; in data set [5]) was at least 80% each time.

As to `COC(=O)C(C)OC(=O)c1cc2c(cc1F)COB2O` (stereo not shown) [Compound 393], the pest or weed control at 200 ppm (in the data set with Plasmopara viticola; in [1]) was at least 80% in each case. Besides, the inhibition at 200 ppm (in the data set on Pythium ultimum; in the data set with Gaeumannomyces graminis; in data set [5]) was at least 80% each time.

Regarding `C#CCCOC(=O)c1ccc2c(c1)B(O)OC2` [Compound 355], the pest or weed control at 200 ppm (in the data set on Plasmopara viticola; in [1]) was at least 80% throughout. In addition, the inhibition at 200 ppm (in the data set with Pythium ultimum; in data set [7]; in [2]; in data set [3]; in the data set with Gaeumannomyces graminis; in data set [4]) was at least 80% each time. Moreover, the inhibition at 200 ppm in data set [5] is at least 80%.

Take `COC(=O)COC(=O)c1cc2c(cc1Cl)COB2O` [Compound 230]: the pest or weed control at 200 ppm (in the data set with Plasmopara viticola; in data set [1]) was at least 80% throughout. The inhibition at 200 ppm (in the data set on Pythium ultimum; in data set [7]; in data set [2]; in [3]; in the data set on Gaeumannomyces graminis; in data set [4]) was at least 80% each time. For the same molecule, the inhibition at 200 ppm (in the data set on Fusarium culmorum; in data set [5]; with Sclerotinia sclerotiorum) was at least 80% each time.
